Results as given in ChEMBL document CHEMBL1201862, “PubChem BioAssay data set” (2004).
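Step 1: Grow cells in 96-well plates. Step 2: Expose to compound for 48 hours at 5 concentrations. Step 3: Interpolate endpoints linearly; if unreached, use highest concentration. GI50: concentration for 50% inhibition of growth.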 Activity calls are given as the source filed them. Rule as the data show it: active = GI50 up to about 1.1 µM and inactive = higher.

Experiments:
Experiment in all cases: inhibition of tumour cell growth, NCI panel, 48 h
A549 = system: A549
ACHN = system: ACHN
CCRF-CEM = system: CCRF-CEM
HCC 2998 = system: HCC 2998
HCT-116 = system: HCT-116
IGROV-1 = system: IGROV-1
KM12 = system: KM12
NCI-H23 = system: NCI-H23
NCI-H522 = system: NCI-H522
OVCAR-3 = system: OVCAR-3
OVCAR-5 = system: OVCAR-5
RXF 393 = system: RXF 393
SF-295 = system: SF-295
SF-539 = system: SF-539
SK-MEL-2 = system: SK-MEL-2
SK-MEL-5 = system: SK-MEL-5
SNB-19 = system: SNB-19
TK-10 = system: TK-10
UACC-62 = system: UACC-62
UO-31 = system: UO-31

| SMILES | GI50 (A549) | GI50 (ACHN) | GI50 (CCRF-CEM) | GI50 (HCC 2998) | GI50 (HCT-116) | GI50 (IGROV-1) | GI50 (KM12) | GI50 (NCI-H23) | GI50 (NCI-H522) | GI50 (OVCAR-3) | GI50 (OVCAR-5) | GI50 (RXF 393) | GI50 (SF-295) | GI50 (SF-539) | GI50 (SK-MEL-2) | GI50 (SK-MEL-5) | GI50 (SNB-19) | GI50 (TK-10) | GI50 (UACC-62) | GI50 (UO-31) |
| --- | --- | --- | --- | --- | --- | --- | --- | --- | --- | --- | --- | --- | --- | --- | --- | --- | --- | --- | --- | --- |
| CC(C)OP(=O)(OC(C)C)c1nc(-c2ccccc2)n(-c2ccc([N+](=O)[O-])cc2)n1 | > 100 µM (inactive) | > 100 µM (inactive) | > 100 µM (inactive) | > 100 µM (inactive) | > 100 µM (inactive) | > 100 µM (inactive) | > 100 µM (inactive) | > 100 µM (inactive) | 98.9 µM (inactive) | > 100 µM (inactive) | > 100 µM (inactive) | 0.0111 µM (active) | > 100 µM (inactive) | > 100 µM (inactive) | 50.8 µM (inactive) | > 100 µM (inactive) | > 100 µM (inactive) | > 100 µM (inactive) | > 100 µM (inactive) | > 100 µM (inactive) |
| COc1ccc(-c2c(-c3ccccc3)c(C)nc3[nH]c(=S)[nH]c(=S)c23)cc1OC | 30.3 µM (inactive) | 30.3 µM (inactive) | 24.7 µM (inactive) | 37.6 µM (inactive) | 22 µM (inactive) | 36.3 µM (inactive) | 18.5 µM (inactive) | 47.4 µM (inactive) | 27.1 µM (inactive) | 20.3 µM (inactive) | 64.4 µM (inactive) | 35.8 µM (inactive) | 42.1 µM (inactive) | 19.8 µM (inactive) | 20.4 µM (inactive) | 28.1 µM (inactive) | 60.3 µM (inactive) | 45.7 µM (inactive) | 16.1 µM (inactive) | 21.6 µM (inactive) |
| Cc1ccc(P(c2ccc(C)cc2)c2ccc(C)cc2)cc1 | 14.6 µM (inactive) | 23.2 µM (inactive) | 20.4 µM (inactive) | 16.1 µM (inactive) | 12.4 µM (inactive) | 18.8 µM (inactive) | 15.8 µM (inactive) | 27.9 µM (inactive) | 11.4 µM (inactive) | 15.7 µM (inactive) | 21.3 µM (inactive) | 15.5 µM (inactive) | 21.4 µM (inactive) | 21.6 µM (inactive) | 22.2 µM (inactive) | 16.6 µM (inactive) | 61.8 µM (inactive) | 31 µM (inactive) | 21.6 µM (inactive) | < 0.01 µM (active) |
| FC(F)(F)c1ccc2c(c1)N(CCCNCCN1CCOCC1)c1ccccc1S2 | 14.4 µM (inactive) | 12.3 µM (inactive) | 12.6 µM (inactive) | 2.23 µM (inactive) | 3.17 µM (inactive) | 15.8 µM (inactive) | 11.6 µM (inactive) | 12.3 µM (inactive) | 14.9 µM (inactive) | 11.4 µM (inactive) | 11.3 µM (inactive) | 2.62 µM (inactive) | 13.3 µM (inactive) | 4.7 µM (inactive) | 3.66 µM (inactive) | 3.8 µM (inactive) | 16.1 µM (inactive) | 12.7 µM (inactive) | 13.2 µM (inactive) | 3.83 µM (inactive) |
| O=C1/C(=c2\c3ccccc3n3c(=O)c4ccccc4nc23)Nc2ccccc21 [CANDIDINE] | > 84.5 µM (inactive) | > 100 µM (inactive) | > 100 µM (inactive) | > 82.4 µM (inactive) | > 100 µM (inactive) | > 100 µM (inactive) | > 59.7 µM (inactive) | > 64.9 µM (inactive) | > 100 µM (inactive) | 45.9 µM (inactive) | > 100 µM (inactive) | > 100 µM (inactive) | > 78.3 µM (inactive) | > 63 µM (inactive) | > 100 µM (inactive) | > 53.8 µM (inactive) | > 100 µM (inactive) | > 100 µM (inactive) | 43.9 µM (inactive) | > 21.5 µM (inactive) |
| C/C1=C\C=C(\C(C)C)CC/C(C(=O)O)=C\CC/C(C)=C/CC1 [NEOCROTOCEMBRANEIC ACID] | 30.2 µM (inactive) | 34.3 µM (inactive) | 19.5 µM (inactive) | 18.7 µM (inactive) | 15.9 µM (inactive) | 42 µM (inactive) | 20.6 µM (inactive) | 20.7 µM (inactive) | 19.3 µM (inactive) | 16.6 µM (inactive) | 29.3 µM (inactive) | 20.7 µM (inactive) | 20 µM (inactive) | 18.5 µM (inactive) | 18.1 µM (inactive) | 19.3 µM (inactive) | 24.9 µM (inactive) | 31.8 µM (inactive) | 13.1 µM (inactive) | 30.3 µM (inactive) |
